Experimental data from the supplement of paper PMC10307832.

How the values were obtained:
Experiment in all cases: relative viability (nuclei count vs DMSO), 5 days (fraction); higher = more cells survive
[1] = compound: O=C(c1cc(Cc2n[nH]c(=O)c3ccccc23)ccc1F)N1CCN(C(=O)C2CC2)CC1 [Olaparib] + CC(C)C[C@H](NC(=O)[C@H](Cc1ccccc1)NC(=O)c1cnccn1)B(O)O [Bortezomib] (partner 0.002 µM)
Procedure, shortened: (§1)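 Relative viability was taken as the ratio of nuclei in treated wells to nuclei in vehicle wells. Lung cancer cell lines in 1536-well plates received compounds by pin tool one day after seeding, either one drug alone or a fixed anchor-drug dose plus five library-drug doses (not always all listed) in √10 steps. Nuclei were counted on 4× images after 5 days of treatment, and values are medians of duplicate plates.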

[2] = compound: CC(C)C[C@H](NC(=O)[C@H](CCc1ccccc1)NC(=O)CN1CCOCC1)C(=O)N[C@@H](Cc1ccccc1)C(=O)N[C@@H](CC(C)C)C(=O)[C@@]1(C)CO1 [Carfilzomib] + CC1(C)CCC(c2ccc(Cl)cc2)=C(CN2CCN(c3ccc(C(=O)NS(=O)(=O)c4ccc(N[C@H](CCN5CCOCC5)CSc5ccccc5)c(S(=O)(=O)C(F)(F)F)c4)cc3)CC2)C1 [Navitoclax] (partner 0.5 µM)
Procedure, shortened: as §1

[3] = compound: C[C@@H](Oc1cc(-c2cnn(C3CCNCC3)c2)cnc1N)c1c(Cl)ccc(F)c1Cl [Crizotinib] + C[C@]1(O)C[C@@H](c2nc(-c3ccc4ccc(-c5ccccc5)nc4c3)c3c(N)nccn32)C1 [Linsitinib] (partner 1 µM)
Procedure, shortened: as §1

[4] = compound: CC(C)C[C@H](NC(=O)[C@H](CCc1ccccc1)NC(=O)CN1CCOCC1)C(=O)N[C@@H](Cc1ccccc1)C(=O)N[C@@H](CC(C)C)C(=O)[C@@]1(C)CO1 [Carfilzomib] + C[C@]1(O)C[C@@H](c2nc(-c3ccc4ccc(-c5ccccc5)nc4c3)c3c(N)nccn32)C1 [Linsitinib] (partner 1 µM)
Procedure, shortened: as §1

Row | Cell Line | relative viability ([1]; first compound 0.08 µM) | relative viability ([1]; first compound 0.253 µM) | relative viability ([1]; first compound 2.53 µM) | relative viability ([1]; first compound 8 µM) | relative viability ([2]; first compound 0.001 µM) | relative viability ([2]; first compound 0.003162 µM) | relative viability ([2]; first compound 0.01 µM) | relative viability ([2]; first compound 0.03162 µM) | relative viability ([2]; first compound 0.1 µM) | relative viability ([3]; first compound 0.01 µM) | relative viability ([3]; first compound 0.03162 µM) | relative viability ([3]; first compound 0.1 µM) | relative viability ([3]; first compound 0.3162 µM) | relative viability ([3]; first compound 1 µM) | relative viability ([4]; first compound 0.001 µM) | relative viability ([4]; first compound 0.003162 µM) | relative viability ([4]; first compound 0.01 µM) | relative viability ([4]; first compound 0.03162 µM) | relative viability ([4]; first compound 0.1 µM)
1 | HCC-78 | 0.489 | 0.545 | 0.496 | 0.537 | 0.546 | 0.925 | 0.748 | 0.503 | 0.179 | 0.489 | 0.529 | 0.459 | 0.433 | 0.372 | 0.554 | 0.585 | 0.545 | 0.385 | 0.214
2 | HCC-366 | 1.06 | 0.959 | 0.913 | 0.384 | 1.02 | 0.98 | 0.956 | 1.03 | 0.0374 | 0.64 | 0.679 | 0.649 |  | 0.608 | 0.657 | 0.666 | 0.611 | 0.557 | 0.0209
3 | HCC-827 | 1.01 | 0.943 | 1.03 | 0.95 | 0.983 | 1.05 | 1.03 | 0.907 | 0.369 | 0.927 | 0.931 |  | 0.946 | 0.958 | 0.941 | 0.979 | 1.05 | 0.848 | 0.406
4 | HOP-62 | 1.21 | 0.55 | 0.556 | 0.211 | 1.1 | 1.11 | 0.887 | 0.167 | 0.107 | 0.81 | 0.946 | 1.1 | 0.956 | 0.816 | 0.991 | 0.992 | 0.924 | 0.133 | 0.0627
5 | IA-LM | 0.743 | 0.739 | 0.745 | 0.659 | 0.851 | 0.815 | 0.879 | 0.0554 | 0.01 | 0.611 | 0.748 | 0.649 | 0.507 | 0.609 | 0.58 | 0.687 | 0.836 | 0.0717 | 0.0278
6 | LC-2-ad | 1.15 | 0.922 | 0.908 | 0.556 | 0.568 | 0.452 | 0.407 | 0.227 | 0.135 | 0.872 | 0.879 | 0.762 |  | 0.852 | 0.879 | 0.907 | 0.907 | 0.462 | 0.151
7 | LCLC-97TM1 | 0.729 | 0.475 | 1.03 | 0.276 | 0.285 | 0.47 | 0.478 | 0.171 | 0.128 | 0.17 | 0.195 | 0.177 | 0.19 | 0.168 | 0.205 | 0.178 | 0.207 | 0.119 | 0.127
8 | LCLC-103H | 1.04 | 1.07 | 1.05 | 0.948 |  |  |  |  |  | 0.985 | 1.07 | 1 | 1.15 | 1.3 | 0.951 | 0.882 | 1.06 | 1.11 | 0.296
9 | LK-2 |  |  |  |  | 0.845 | 0.907 | 0.879 | 0.209 | 0.175 | 0.431 | 0.523 | 0.541 | 0.458 | 0.709 | 0.815 | 0.837 | 0.497 | 0.18 | 0.177
10 | LOU-NH91 | 0.502 | 0.462 | 0.512 | 0.394 | 0.703 | 0.832 | 0.42 | 0.19 | 0.204 | 0.902 | 0.916 | 0.963 | 0.991 | 0.939 | 1.01 | 1.14 | 0.67 | 0.334 | 0.298
11 | LU99A | 1.13 | 0.96 | 0.726 | 0.626 | 0.738 | 0.898 | 0.793 | 0.581 | 0.183 | 0.477 | 0.541 | 0.528 | 0.486 | 0.579 | 0.547 | 0.514 | 0.508 | 0.225 | 0.159
12 | NCI-H358 |  |  |  |  |  |  |  |  |  | 0.663 | 0.658 | 0.744 | 0.779 | 0.899 | 0.793 | 0.977 | 0.717 | 0.15 | 0.16
13 | NCI-H650 | 0.978 | 0.672 | 0.561 | 0.516 |  |  |  |  |  | 0.858 | 0.868 |  | 0.596 | 0.894 | 0.389 | 1.19 | 0.958 | 0.27 | 0.176
14 | NCI-H661 | 1.06 | 0.745 | 0.703 | 0.582 |  |  |  |  |  | 0.552 | 0.472 | 0.521 | 0.582 | 0.759 | 0.501 | 0.851 | 0.552 | 0.424 | 0.171
15 | NCI-H1395 |  |  |  |  | 0.964 | 1.24 | 0.995 | 0.481 | 0.347 | 1.07 | 1.17 | 0.944 | 1.01 | 1.03 | 1.28 | 1.16 | 0.795 | 1.4 | 0.307
16 | NCI-H1563 | 0.876 | 0.881 | 0.896 | 0.692 |  |  |  |  |  | 1.18 | 1.12 | 1.22 | 1.3 | 1.27 | 1.19 | 1.26 | 1.25 | 1.2 | 0.586
17 | NCI-H1650 | 0.265 | 0.196 | 0.232 | 0.197 |  | 1.09 | 1.24 | 0.1 | 0.119 |  |  |  |  |  |  |  |  |  | 
18 | NCI-H1944 |  |  |  |  | 0.998 | 1.16 | 1.01 | 1.05 | 0.546 | 1.11 | 1.07 | 1.2 | 1.18 | 1.21 | 1.14 | 1.24 | 1.17 | 1.2 | 0.489
19 | NCI-H2170 |  |  |  |  | 0.698 | 0.688 | 0.617 | 0.409 | 0.197 |  |  |  |  |  |  |  |  |  | 
20 | SK-MES-1 |  |  |  |  | 1.29 | 1.25 | 1.26 | 0.416 | 0.172 | 1.02 | 1.1 | 1.15 | 0.982 |  | 1.17 | 1.16 | 1.17 | 1.03 | 0.334
